Among the data in patent US6828320B2, “Heterocyclic compounds” (SmithKline Beecham Corporation, priority 1996, dated 2004) are IC50 and GI50 values, retold here.

In assay [1] the target is T1, c-erbB-2 (baculovirus expressed, recombinant intracellular domain) (Homo sapiens, UniProt P04626).
T1 construct: baculovirus expressed, recombinant constructs of the intracellular domains of c-erbB-2 and c-erbB-4; made in house
The experiment in a line: Substrate phosphorylation assay, c-erbB-2. The note with it: read-out: Substrate Phosphorylation erbB-2. It is filed as biochemical. The protocol:
(§1) The substrate phosphorylation assays use baculovirus expressed, recombinant constructs of the intracellular domains of c-erbB-2 and c-erbB-4 that are constitutively active and EGFr isolated from solubilised A431 cell membranes. The method measures the ability of the isolated enzymes to catalyse the transfer of the γ-phosphate from ATP onto tyrosine residues in a biotinylated synthetic peptide (Biotin-[…]. […] The reaction is stopped by the addition of EDTA (final concentration 0.15 mM) and a sample is transferred to a streptavidin-coated 96-well plate. The plate is washed and level of phosphotyrosine on the peptide is determined using a Europium-labelled antiphosphotyrosine antibody and quantified with a time-resolved fluorescence technique.

For assay [2], the target named is T2, EGFr isolated from solubilised A431 cell membranes (Homo sapiens, UniProt P00533).
T2 construct: EGFr isolated from solubilised A431 cell membranes; endogenous in cells; host or cells: A431 cell membranes (solubilised)
The experiment in a line: Substrate phosphorylation assay, EGFr. It is filed as biochemical. The protocol: as §1

The target of assay [3] is T3, c-erbB-4 (baculovirus expressed, recombinant intracellular domain) (Homo sapiens, UniProt Q15303).
T3 construct: baculovirus expressed, recombinant constructs of the intracellular domains of c-erbB-2 and c-erbB-4; made in house
The assay is described as follows: Substrate phosphorylation assay, c-erbB-4. It is filed as biochemical. The protocol: as §1

Assay [4] deals with HB4a cell line transfected with ras. The assay is described as follows: Cell proliferation assay, HB4a ras. The format is cell-based, human. The note with it: Homo sapiens, HB4a, 96 h; 4 days at 37° C., methylene blue staining; general toxicity control; read-out: Cell Proliferation HB4a ras.
Assay [5] has as its target HB4a cell line transformed by over-expression of c-erbB-2 (Homo sapiens, UniProt P04626). The experiment in a line: Cell proliferation assay, HB4a erbB-2. It is filed as cell-based. The note with it: 4 days at 37° C., methylene blue staining; read-out: Cell Proliferation HB4a erbB-2. The protocol:
The cell proliferation assay uses an immortalised human breast epithelial cell line (HB4a) which has been transformed by over-expression of c-erbB-2. Growth of these cells in low serum is dependent upon the c-erbB-2 tyrosine kinase activity. […] Cells are plated at 3000/ well in 96-well plates in 0.1 ml medium and allowed to attach overnight. test compound is added in 0.1 ml medium, with a final concentration of 0.5% DMSO, and the plates incubated for 4 days at 37° C. The cells are then examined microscopically for evidence of morphological detransformation and cell mass is estimated by staining with methylene blue and measuring the absorbance at 620 nm. […] Activity against a range of naturally occurring EGFr or c-erbB-2 over-expressing human tumour cell lines (BT474-breast, HN5-head and neck, N87-gastric and Calu3-lung) is assessed with selected compounds by the same methodology.

For assay [6], the system named is Calu3-lung tumour cell line. The experiment in a line: Cell proliferation assay, Calu3. It is filed as cell-based, human. The note with it: Homo sapiens, Calu-3, 96 h; same methodology, 4 days. The protocol: (§2) The cell proliferation assay uses an immortalised human breast epithelial cell line (HB4a) which has been transformed by over-expression of c-erbB-2. Growth of these cells in low serum is dependent upon the c-erbB-2 tyrosine kinase activity. The specificity of the effect of the test compounds on tyrosine kinase dependent growth over general toxicity is assessed by comparison to an HB4a cell line which has been transfected with ras. Cells are plated at 3000/ well in 96-well plates in 0.1 ml medium and allowed to attach overnight. test compound is added in 0.1 ml medium, with a final concentration of 0.5% DMSO, and the plates incubated for 4 days at 37° C. The cells are then examined microscopically for evidence of morphological detransformation and cell mass is estimated by staining with methylene blue and measuring the absorbance at 620 nm. The results are shown in Table 1 below as the IC50 values in nM. Activity against a range of naturally occurring EGFr or c-erbB-2 over-expressing human tumour cell lines (BT474-breast, HN5-head and neck, N87-gastric and Calu3-lung) is assessed with selected compounds by the same methodology. The results are also shown in Table 1 below as the IC50 values in nM.

Assay [7] relates to HN5-head and neck tumour cell line. The experiment in a line: Cell proliferation assay, HN5. The format is cell-based, human. The note with it: Homo sapiens, 96 h; same methodology, 4 days. The protocol: as §2
For assay [8], the system named is N87-gastric tumour cell line. The assay is described as follows: Cell proliferation assay, N87. The note with it: Homo sapiens, 96 h; same methodology, 4 days. The format is cell-based, human. The protocol: as §2
[9] abbreviates: 30 minutes, room temperature, ATP and peptide at Km concentrations.

Where a name gives a salt, the structure may show the parent alone. Read-outs that look alike come from different tables or passages of the source.

Sequence of HB4a cell line transformed by over-expression of c-erbB-2 (P04626 whole entry, change not shown): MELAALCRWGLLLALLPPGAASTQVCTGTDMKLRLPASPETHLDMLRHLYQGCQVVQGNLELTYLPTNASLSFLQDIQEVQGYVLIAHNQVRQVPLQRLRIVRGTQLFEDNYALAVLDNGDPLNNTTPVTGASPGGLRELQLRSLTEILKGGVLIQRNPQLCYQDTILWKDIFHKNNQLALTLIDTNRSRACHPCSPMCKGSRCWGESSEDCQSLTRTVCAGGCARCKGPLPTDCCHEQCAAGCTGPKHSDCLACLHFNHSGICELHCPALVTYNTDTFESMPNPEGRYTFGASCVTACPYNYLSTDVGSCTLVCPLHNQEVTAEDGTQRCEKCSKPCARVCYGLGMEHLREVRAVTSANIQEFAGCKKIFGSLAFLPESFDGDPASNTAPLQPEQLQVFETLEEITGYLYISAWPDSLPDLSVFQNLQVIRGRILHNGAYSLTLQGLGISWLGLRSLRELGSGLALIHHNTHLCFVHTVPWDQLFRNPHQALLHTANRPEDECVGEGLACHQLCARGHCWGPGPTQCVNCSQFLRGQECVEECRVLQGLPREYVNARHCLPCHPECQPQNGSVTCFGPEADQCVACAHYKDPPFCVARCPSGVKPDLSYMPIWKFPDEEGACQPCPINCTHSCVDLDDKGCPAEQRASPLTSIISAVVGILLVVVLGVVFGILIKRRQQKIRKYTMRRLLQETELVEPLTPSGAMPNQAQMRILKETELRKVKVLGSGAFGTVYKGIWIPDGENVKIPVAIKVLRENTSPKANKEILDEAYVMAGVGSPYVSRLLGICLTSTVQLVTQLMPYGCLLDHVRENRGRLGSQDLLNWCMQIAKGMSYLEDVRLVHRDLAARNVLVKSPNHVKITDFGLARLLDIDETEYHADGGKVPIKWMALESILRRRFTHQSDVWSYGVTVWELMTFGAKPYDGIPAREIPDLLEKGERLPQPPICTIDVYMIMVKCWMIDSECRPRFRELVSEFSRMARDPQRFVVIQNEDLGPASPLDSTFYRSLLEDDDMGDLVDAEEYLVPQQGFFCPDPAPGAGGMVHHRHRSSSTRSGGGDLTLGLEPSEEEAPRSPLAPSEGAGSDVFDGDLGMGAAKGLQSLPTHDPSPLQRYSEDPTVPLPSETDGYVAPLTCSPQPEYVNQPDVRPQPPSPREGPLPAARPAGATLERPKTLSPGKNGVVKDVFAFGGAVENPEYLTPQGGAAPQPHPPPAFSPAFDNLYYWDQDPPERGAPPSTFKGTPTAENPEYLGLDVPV
T1 sequence (P04626 676-1255 limits assumed): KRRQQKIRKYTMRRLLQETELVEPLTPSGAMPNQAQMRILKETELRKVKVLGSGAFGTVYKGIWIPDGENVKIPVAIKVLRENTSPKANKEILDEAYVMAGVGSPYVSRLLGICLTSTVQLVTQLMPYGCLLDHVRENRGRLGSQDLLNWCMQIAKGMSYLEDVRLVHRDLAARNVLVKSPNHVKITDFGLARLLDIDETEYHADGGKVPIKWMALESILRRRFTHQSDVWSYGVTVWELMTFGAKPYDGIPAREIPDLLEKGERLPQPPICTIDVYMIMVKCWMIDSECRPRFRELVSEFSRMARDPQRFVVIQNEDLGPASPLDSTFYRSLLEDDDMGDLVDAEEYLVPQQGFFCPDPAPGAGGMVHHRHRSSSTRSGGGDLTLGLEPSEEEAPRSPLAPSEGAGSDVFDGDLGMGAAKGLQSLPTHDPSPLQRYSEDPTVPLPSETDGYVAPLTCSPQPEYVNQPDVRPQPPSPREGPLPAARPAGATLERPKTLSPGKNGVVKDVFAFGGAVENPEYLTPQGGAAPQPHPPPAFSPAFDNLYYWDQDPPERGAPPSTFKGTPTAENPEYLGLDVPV
T3 sequence (Q15303 676-1308 limits assumed): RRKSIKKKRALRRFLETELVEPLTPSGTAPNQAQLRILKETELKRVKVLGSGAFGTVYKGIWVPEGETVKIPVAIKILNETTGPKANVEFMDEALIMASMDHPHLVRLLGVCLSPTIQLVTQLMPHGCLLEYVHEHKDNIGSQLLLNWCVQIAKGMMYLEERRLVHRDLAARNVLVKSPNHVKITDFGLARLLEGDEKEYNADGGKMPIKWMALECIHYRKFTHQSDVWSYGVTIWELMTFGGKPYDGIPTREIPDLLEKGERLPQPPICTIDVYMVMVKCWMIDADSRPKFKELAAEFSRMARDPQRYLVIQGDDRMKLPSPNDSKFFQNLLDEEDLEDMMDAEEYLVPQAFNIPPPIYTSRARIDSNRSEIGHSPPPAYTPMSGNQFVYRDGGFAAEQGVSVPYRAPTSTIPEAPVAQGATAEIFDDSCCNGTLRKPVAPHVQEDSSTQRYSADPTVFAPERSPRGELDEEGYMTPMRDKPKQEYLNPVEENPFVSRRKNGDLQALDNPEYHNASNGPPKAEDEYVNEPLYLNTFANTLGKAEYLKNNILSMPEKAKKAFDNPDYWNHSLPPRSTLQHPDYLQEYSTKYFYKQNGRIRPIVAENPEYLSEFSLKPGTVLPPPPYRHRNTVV
T2 sequence (P00533 25-1210): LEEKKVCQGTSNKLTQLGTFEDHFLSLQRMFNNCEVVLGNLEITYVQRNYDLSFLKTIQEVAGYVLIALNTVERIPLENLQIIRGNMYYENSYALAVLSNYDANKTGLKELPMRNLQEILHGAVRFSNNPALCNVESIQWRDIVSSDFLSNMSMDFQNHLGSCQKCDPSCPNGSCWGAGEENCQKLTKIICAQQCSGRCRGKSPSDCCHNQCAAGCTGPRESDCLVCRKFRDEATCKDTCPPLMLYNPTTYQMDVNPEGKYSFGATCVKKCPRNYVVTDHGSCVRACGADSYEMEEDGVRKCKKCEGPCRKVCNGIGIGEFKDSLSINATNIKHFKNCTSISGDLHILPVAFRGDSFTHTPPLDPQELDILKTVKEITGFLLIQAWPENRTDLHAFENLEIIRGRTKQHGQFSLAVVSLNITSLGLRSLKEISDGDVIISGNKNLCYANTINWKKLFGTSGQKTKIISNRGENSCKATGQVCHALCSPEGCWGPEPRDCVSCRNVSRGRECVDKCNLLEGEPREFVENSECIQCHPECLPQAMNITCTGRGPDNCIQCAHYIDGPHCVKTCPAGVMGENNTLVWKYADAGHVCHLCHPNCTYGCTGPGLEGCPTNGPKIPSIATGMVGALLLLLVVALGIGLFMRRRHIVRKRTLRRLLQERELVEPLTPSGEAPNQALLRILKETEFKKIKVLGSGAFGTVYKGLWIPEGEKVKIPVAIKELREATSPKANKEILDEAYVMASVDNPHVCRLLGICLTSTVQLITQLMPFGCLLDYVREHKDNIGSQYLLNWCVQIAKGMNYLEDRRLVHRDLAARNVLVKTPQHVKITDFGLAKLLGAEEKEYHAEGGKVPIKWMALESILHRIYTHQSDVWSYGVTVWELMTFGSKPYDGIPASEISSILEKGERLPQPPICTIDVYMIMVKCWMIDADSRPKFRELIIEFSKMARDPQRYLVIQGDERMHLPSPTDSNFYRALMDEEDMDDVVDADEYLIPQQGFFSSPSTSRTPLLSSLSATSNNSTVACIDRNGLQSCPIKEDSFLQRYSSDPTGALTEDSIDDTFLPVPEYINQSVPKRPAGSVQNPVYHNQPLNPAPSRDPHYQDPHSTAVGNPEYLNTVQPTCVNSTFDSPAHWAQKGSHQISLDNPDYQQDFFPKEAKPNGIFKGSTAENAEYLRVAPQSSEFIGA

In the case of `CCN(CCN(C)C)Cc1ccc(-c2ccc3ncnc(Nc4ccc(OCc5ccccc5)cc4)c3c2)o1` [Example 13, N-(5-(4-(4-Benzyloxy-phenylamino)-quinazolin-6-yl)-furan-2-ylmethyl)-N-ethyl-N′,N′-dimethyl-ethane-1,2-diamine], the IC50 came out at 350 nM in assay [1], 300 nM in assay [2] (setting [9]), 2300 nM in assay [3] and 2.2 µM in assay [4]. In addition, the GI50 in assay [5] amounted to 450 nM.

Take `c1ccc(COc2ccc(Nc3ncnc4ccc(-c5cccs5)cc34)cc2)cc1` [Example 2, (4-Benzyloxy-phenyl)-(6-(thiophen-2-yl)-quinazolin-4-yl)-amine]: the IC50 in assay [1] turned out to be 21 nM; in assay [6], 4.6 µM; in assay [3] it was 500 nM; in assay [4], 8.3 µM; in assay [7], 26 µM. The GI50 in assay [5] was found to be 1000 nM.

Consider `c1ccc(COc2ccc(Nc3ncnc4ccc(-c5ccc(C6OCCO6)o5)cc34)cc2)cc1` [Example 5], for which the IC50 in assay [1] was determined as 20 nM; in assay [6], 0.78 µM; in assay [3], 320 nM; in assay [4] it was 19 µM; in assay [7] it was 1.4 µM. Also, the GI50 in assay [5] was found to be 400 nM.

In the case of `c1ccc(COc2ccc(Nc3ncnc4ccc(-c5ccc(CNc6cccnc6)o5)cc34)cc2)cc1` [Example 14, (4-Benzyloxy-phenyl)-(6-(5-(pyridin-3-ylaminomethyl)-furan-2-yl)quinazolin-4-yl)-amine], the IC50 in assay [1] was 34 nM; in assay [2] it was 200 nM; in assay [3], 1200 nM; in assay [4], 5 µM. In addition, in assay [5], the GI50 was found to be 680 nM.

`Cc1nnc(-c2ccc3ncnc(Nc4ccc(Oc5ccccc5)cc4)c3c2)o1` [Example 20, (4-Phenoxy-phenyl)-(6-(5-methyl-1,3,4-oxadiazol-2-yl)quinazolin-4-yl)-amine hydrochloride]: the IC50 in assay [1] is 3 nM; in assay [2] (setting [9]), 140 nM; in assay [4], over 50 µM. The GI50 in assay [5] stood at 6200 nM.

`CN1CCN(Cc2ccc(-c3ccc4ncnc(Nc5ccc(OCc6ccccc6)cc5)c4c3)o2)CC1` [Example 10]: the IC50 in assay [1] amounted to 52 nM; in assay [6], 2.2 µM; in assay [3], 780 nM; in assay [4], 7.1 µM; in assay [7], 2.1 µM. Further, in assay [5], the GI50 turned out to be 1500 nM.

Regarding `c1ccc(COc2ccc(Nc3ncnc4ccc(-c5ccc(CNCC6CCCO6)o5)cc34)cc2)cc1` (stereo not drawn) [Example 15, (4-Benzyloxy-phenyl)-(6-(5-(((tetrahydro-furan-2-ylmethyl)-amino)-methyl)-furan-2-yl)-quinazolin-4-yl)-amine hydrochloride], the IC50 in assay [1] worked out at 50 nM; in assay [2] (setting [9]), 540 nM; in assay [3], 2300 nM; in assay [4] it was 3.2 µM. Moreover, in assay [5], the GI50 is 2600 nM.

As to `Cc1nnc(-c2ccc3ncnc(Nc4ccc5c(cnn5Cc5ccccn5)c4)c3c2)o1` [Example 23, (1-Pyridin-2-ylmethyl)-1H-indazol-5-yl)-(6-(5-methyl-1,3,4-oxadiazol-2-yl)-quinazolin-4-yl)-amine hydrochloride], the IC50 is 1 nM in assay [1], 32 nM in assay [2] (setting [9]) and over 50 µM in assay [4]. The GI50 in assay [5] worked out at 31000 nM.

Regarding `Cc1nnc(-c2ccc3ncnc(Nc4ccc(S(=O)(=O)c5ccccc5)cc4)c3c2)o1` [Example 30, (4-Benzenesulphonyl-phenyl)-(6-(5-methyl-1,3,4-oxadiazol-2-yl)-quinazolin-4-yl)-amine hydrochloride], the IC50 worked out at 6 nM in assay [1], 38 nM in assay [2] (setting [9]), 18 µM in assay [6] and 50 µM in assay [4]. The GI50 in assay [5] stood at 5400 nM.

With `Cn1cncc1-c1ccc2ncnc(Nc3ccc4c(cnn4Cc4ccccc4)c3)c2c1` [Example 38, (1-Benzyl-1H-indazol-5-yl)-(6-(3-methyl-3H-imidazol-4-yl)-quinazolin-4-yl)-amine], the IC50 came out at 88 nM in assay [1], 140 nM in assay [2] (setting [9]) and 520 nM in assay [3].

For `Cc1nnc(-c2ccc3ncnc(Nc4ccc5c(cnn5Cc5cccc(F)c5F)c4)c3c2)o1` [Example 24, (1-(2,3-Difluorobenzyl)-1H-indazol-5-yl)-(6-(5-methyl-1,3,4-oxadiazol-2-yl)quinazolin-4-yl)-amine hydrochloride], the IC50 in assay [1] was 2 nM; in assay [2] (setting [9]), 15 nM; in assay [4], over 50 µM. Further, in assay [5], the GI50 came out at 17000 nM.

As for `Cc1nnc(-c2ccc3ncnc(Nc4ccc(OCc5ccccc5F)c(Cl)c4)c3c2)o1` [Example 25, (3-Chloro-4-(2-fluoro-benzyloxy)-phenyl)-(6-(5-methyl-1,3,4-oxadiazol-2-yl)-s-quinazolin-4-yl)-amine hydrochloride], the figures for the IC50 in assay [1], in assay [2] (setting [9]) and in assay [4] were 15 nM, 22 nM and over 50 µM, respectively. In addition, in assay [5], the GI50 was determined as 750 nM.

Regarding `c1ccc(Cn2ncc3cc(Nc4ncnc5ccc(-c6noc(Cc7cccnc7)n6)cc45)ccc32)cc1` [Example 62], the IC50 is 100 nM in assay [1], 13 nM in assay [2] (setting [9]) and 3.7 µM in assay [4]. In assay [5], the GI50 stood at 500 nM.

As for `Cc1nnc(-c2ccc3ncnc(Nc4ccc(OCc5ccccc5F)cc4)c3c2)o1` [Example 28, (4-(2-Fluoro-benzyloxy)-phenyl)-(6-(5-methyl-1,3,4-oxadiazol-2-yl)-quinazolin-4-yl)-amine hydrochloride], the IC50 in assay [1] is 7 nM; in assay [2] (setting [9]) it was 50 nM; in assay [4], over 50 µM; in assay [8], 8.2 µM. Further, in assay [5], the GI50 came to 5300 nM.

Take `C1=C(c2ccc3ncnc(Nc4ccc(OCc5ccccc5)cc4)c3c2)OCC1` [Example 7, (4-Benzyloxy-phenyl)-(6-(2,3-dihydrofuran-5-yl)-quinazolin-4-yl)-amine]: the IC50 was found to be 36 nM in assay [1]; 4.7 µM in assay [6]; 1500 nM in assay [3]; 12 µM in assay [4]; 5.5 µM in assay [7]. Moreover, the GI50 in assay [5] was 1300 nM.

With `Cc1nnc(-c2ccc3ncnc(Nc4ccc5c(cnn5Cc5ccccc5F)c4)c3c2)o1` [Example 21, (1-(2-Fluorobenzyl)-1H-indazol-5-yl)-(6-(5-methyl-1,3,4-oxadiazol-2-yl)-quinazolin-4-yl-amine hydrochloride], the IC50 in assay [1] is 9 nM; in assay [2] (setting [9]) it was 28 nM; in assay [4], over 50 µM. The GI50 in assay [5] came out at 2300 nM.

For the compound `Cc1nnc(-c2ccc3ncnc(Nc4ccc(OCc5ccccc5)cc4)c3c2)o1` [Example 27, (4-Benzyloxy-phenyl)-(6-(5-methyl-1,3,4-oxadiazol-2-yl)-quinazolin-4-yl)-amine hydrochloride], the IC50 worked out at 10 nM in assay [1], 47 nM in assay [2] (setting [9]) and 50 µM in assay [4]. Also, the GI50 in assay [5] stood at 6500 nM.

Regarding `Cc1nnc(-c2ccc3ncnc(Nc4ccc(OCc5cccc(F)c5)c(Cl)c4)c3c2)o1` [Example 26, (3-Chloro-4-(3-fluoro-benzyloxy)-phenyl)-(6-(5-methyl-1,3,4-oxadiazol-2-yl)-quinazolin-4-yl)-amine hydrochloride], the IC50 in assay [1] was 7 nM; in assay [2] (setting [9]), 18 nM; in assay [4] it was over 50 µM. In assay [5], the GI50 was 650 nM.
